Experiments:
[1] = test system: A1nC (RNA, riboswitch) GGACUCGGGGUGCCCUUCUGCGUGAAGGCUGAGAAAUACCCGUAUCACCUGAUCUGGAUAAUGCCAGCGUAGGGCAGUUC; assay: native gel electrophoresis (mobility increase); conditions: 1 mM Mg2+; 25 mM Tris, 192 mM glycine pH 8.3; 100 µM TPP
[2] = test system: Natural E. coli TPP riboswitch (RNA, riboswitch) GGACUCGGGGUGCCCUUCUGCGUGAAGGCUGAGAAAUACCCGUAUCACCUGAUCUGGAUAAUGCCAGCGUAGGGAAGUUC; assay: ITC; conditions: 100 mM KCl, 10 mM MgCl2; 40 mM Hepes pH 7.5, 303.15 K
[3] = test system: A1nC (RNA, riboswitch) GGACUCGGGGUGCCCUUCUGCGUGAAGGCUGAGAAAUACCCGUAUCACCUGAUCUGGAUAAUGCCAGCGUAGGGCAGUUC; assay: ITC; conditions: 100 mM KCl, 10 mM MgCl2; 40 mM Hepes pH 7.5, 303.15 K; 150 µM TPP titrated into 15 µM RNA
[4] = test system: A2bC (RNA, riboswitch) GGACUCGGGGUGCCCUUCUGCGUGAAGGCUGAGAAAUACCCGUAUCCCCUGAUCUGGAUAAUGCCAGCGUAGGGAAGUUC; assay: ITC; conditions: 100 mM KCl, 10 mM MgCl2; 40 mM Hepes pH 7.5, 303.15 K
[5] = test system: ΔUC (RNA, riboswitch) GGACUCGGGGUGCCCUUCUGCGUGAAGGCUGAGAAAUACCCGUAACCUGAUCUGGAUAAUGCCAGCGUAGGGAAGUUC; assay: ITC; conditions: 100 mM KCl, 10 mM MgCl2; 40 mM Hepes pH 7.5, 303.15 K
[6] = test system: Natural E. coli TPP riboswitch (RNA, riboswitch) GGACUCGGGGUGCCCUUCUGCGUGAAGGCUGAGAAAUACCCGUAUCACCUGAUCUGGAUAAUGCCAGCGUAGGGAAGUUC; assay: native gel electrophoresis (mobility increase); conditions: 1 mM Mg2+; 25 mM Tris, 192 mM glycine pH 8.3; 100 µM TPP
[7] = test system: A1nU (RNA, riboswitch) GGACUCGGGGUGCCCUUCUGCGUGAAGGCUGAGAAAUACCCGUAUCACCUGAUCUGGAUAAUGCCAGCGUAGGGUAGUUC; assay: ITC; conditions: 100 mM KCl, 10 mM MgCl2; 40 mM Hepes pH 7.5, 303.15 K
[8] = test system: A2bU (RNA, riboswitch) GGACUCGGGGUGCCCUUCUGCGUGAAGGCUGAGAAAUACCCGUAUCUCCUGAUCUGGAUAAUGCCAGCGUAGGGAAGUUC; assay: ITC; conditions: 100 mM KCl, 10 mM MgCl2; 40 mM Hepes pH 7.5, 303.15 K
[9] = test system: A1bG (RNA, riboswitch) GGACUCGGGGUGCCCUUCUGCGUGAAGGCUGAGAAAUACCCGUGUCACCUGAUCUGGAUAAUGCCAGCGUAGGGAAGUUC; assay: ITC; conditions: 100 mM KCl, 10 mM MgCl2; 40 mM Hepes pH 7.5, 303.15 K

With `Cc1ncc(C[n+]2csc(CCOP(=O)(O)OP(=O)(O)O)c2C)c(N)n1` the binding [1] was “no”, the Kd [2] was 230 ± 20 nM and the binding [3] was “no”. The Kd [4] was 850 ± 110 nM, the Kd [5] was 280 ± 40 nM and the binding [6] was “yes”. The Kd [7] was 4070 ± 730 nM, the Kd [8] was 550 ± 40 nM and the Kd [9] was 2440 ± 230 nM.
